“Also recorded” adds a separate entry of the source. Ends that are not written are not given here. Peptide text beside a SMILES is read from it.
How the values were obtained:
Drosophila SPR = details: more sensitive to MIP than to SP itself; ref [59]; cited from earlier work
Description: (§1) Intriguingly, two well-known receptors (for sex peptide and neuropeptide F) are prominently male-enriched (Supporting information S1). Their spatial expression patterns are presented along with their peptide ligands in Supporting information S1. Sex peptide receptor (SPR) is 6.6x male-enriched.

right and left tubules = details: right v. left tubules; chloride conductance under control of leucokinin through intracellular calcium; ref [48], [49]; cited from earlier work
Description: Bestrophin 2 encodes (of four Drosophila bestrophins) the most closely related to human bestrophin 1, a calcium- and volume-activated chloride channel of retinal pigmented epithelial cells, which is mutated in Best’s macular dystrophy, [44]. However, Bestrophins play wider roles: they are implicated in epithelial-to-mesenchymal transitions in human kidney, and in olfactory transduction. In Drosophila, Best1 also mediates a calcium and volume activated chloride current. FlyAtlas reports that, although expressed in eye, Best2 is abundant in epithelia; in adult tubul ...

female = details: transferred with the sperm to the female; ref [58]; cited from earlier work
Description: as §1

male Malpighian tubules = details: 3 h
Method: Cytosolic [Ca^2+]cyto or peroxisomal [Ca^2+]perox calcium was measured in tubules expressing transgenic aequorin according to published protocols [88], [89]. Briefly, the tubules were dissected, incubated at room temperature with 2.5 µM coelenterazine to reconstitute aequorin for 3 h. Calcium-dependent aequorin luminescence was measured in 10 biological replicates each containing 20-pairs of tubules. At the end of each experiment, total aequorin was released using 300 µl of lysis buffer (1% (v/v) Triton X-100, 100 mM CaCl2) in order to calculate the total luminescence; and the data were back-integrated using a program written in Perl, based on the method described by Button and Eidsath [90]. Data are presented as the mean (±SEM) and statistical significance was calculated using unpaired t-test.

male tubules = experiment: Tubule fluid secretion assay; design: species or system Drosophila melanogaster; details: sNPF 10^−7 M added at 30 min, average rates before vs after addition, *** Student's t-test, two tailed, P<0.05, N = 10 tubules (typical trace)
Method: (§2) Classical fluid secretion assays were performed as previously described by Dow et al.. Briefly, basal fluid secretion rates of the dissected live tubules were established for 30 min after which the required concentrations of peptides were added and secretion was measured for a further 70 min. The rates of secretion (in nl/min) were represented as the mean (±SEM) of approximately 30–35 tubules coming from 3 independent biological replicates.
(§3) sNPF (AQRSPSLRLRF-NH2) and MIP (AWQSLQSSW-NH2) peptides were synthesised by Biomatik, USA with a purity of greater than 98%. NPF ([…]-NH2) peptide was a kind gift from Professor Ian Orchard (University of Toronto Mississauga). According to the peptide profiles generated by peptide profile calculator (Gene Script, UK), they were dissolved first in water to produce a stock solution of 10 mM and subsequently diluted in the Schneider’s medium to get required final concentrations.

female tubules = experiment: Tubule fluid secretion assay; design: species or system Drosophila melanogaster; details: sNPF 10^−7 M added at 30 min, average rates before vs after addition
Method: as §2, §3

For “AWQSLQSSW-NH2 [allatostatin-B, the Drosophila MIP, allatostatin-B]”, which “Sensitivity of Drosophila SPR relative to SP” value (Drosophila SPR) is on record?
The value was 10 x.

Which “Action on right and left tubules” value (right and left tubules) does the source give for “leucokinin: diuretic neuropeptide leucokinin, which acts through intracellular calcium (NSVVLGKKQRFHSWG; ends and bridges not checked; UniProt P81829 133-147, looked up)” here?
The value was “acts equally on both right and left tubules”.

For “Sex peptide: transferred with the sperm to the female (WEWPWNRKPTKFPIPSPNPRDKWCRLNLGPAWGGRC; ends and bridges not checked; cysteine pairing not given here; UniProt P05623 20-55, looked up)”, which “Change in female physiology and behaviour” value (female) is on record?
The value was “a reduction in receptivity to subsequent matings”.

Which EC50 (male Malpighian tubules) does the source give for `CSCC[C@H](NC(=O)[C@@H](NC(=O)[C@H](CC(N)=O)NC(=O)[C@@H](NC(=O)[C@H](CC(=O)O)NC(=O)[C@H](CC(N)=O)NC(=O)[C@H](CCCCN)NC(=O)[C@H](CCCNC(=N)N)NC(=O)[C@@H]1CCCN1C(=O)[C@@H]1CCCN1C(=O)[C@H](CCCNC(=N)N)NC(=O)[C@H](CO)NC(=O)[C@H](CC(N)=O)NC(=O)[C@@H](N)CO)C(C)C)[C@@H](C)O)C(=O)N[C@@H](C)C(=O)N[C@@H](CC(=O)O)C(=O)N[C@@H](C)C(=O)N[C@@H](Cc1ccc(O)cc1)C(=O)N[C@@H](CCCCN)C(=O)N[C@@H](Cc1ccccc1)C(=O)N[C@@H](CC(C)C)C(=O)N[C@@H](CCC(N)=O)C(=O)N[C@@H](CC(=O)O)C(=O)N[C@@H](CC(C)C)C(=O)N[C@@H](CC(=O)O)C(=O)N[C@H](C(=O)N[C@@H](Cc1ccc(O)cc1)C(=O)N[C@@H](Cc1ccc(O)cc1)C(=O)NCC(=O)N[C@@H](CC(=O)O)C(=O)N[C@@H](CCCNC(=N)N)C(=O)N[C@@H](C)C(=O)N[C@@H](CCCNC(=N)N)C(=O)N[C@H](C(=O)N[C@@H](CCCNC(=N)N)C(=O)N[C@@H](Cc1ccccc1)C(N)=O)C(C)C)[C@@H](C)O` [NPF, neuropeptide F] (H-SNSRPPRKNDVNTMADAYKFLQDLDTYYGDRARVRF-NH2) here?
The EC50 was 6 nM.

Which Resting fluid secretion (male tubules) does the source give for “AQRSPSLRLRF-NH2 [sNPF, short neuropeptide F, distantly related peptide, the so called short neuropeptide F; synthesised by Biomatik]” here?
Its Resting fluid secretion is “inhibits fluid secretion in male; also recorded: inhibits resting fluid secretion”.

And the Resting fluid secretion (female tubules)?
Its Resting fluid secretion is “not female; also recorded: only of male tubules”.
